Measurements reported in patent publication US8697692B2, “Pyrrolo [3,2-c] pyridine-4-one 2-indolinone protein kinase inhibitors” (Shanghai Hengrui Pharmaceutical Co., Ltd., priority 2006, dated 2014).

The compounds below were run on HUVEC cell (assay: Cell Proliferation Inhibition VEGF-R2 Assay (SRB method)). Settings: Homo sapiens; HUVEC cells, 72 hours exposure, Sulforhodamine B; read-out: IC50 (VEGFR/HUVEC).
Assay type: cell-based, homo sapient
Procedure, shortened: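 HUVECs grown to ~85% confluence in DMEM/F12 + 10% FBS, then exposed to 6–7 compound concentrations for 72 h at 37 °C, 5% CO2; vehicle controls received 0.5% DMSO medium.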
For `Cc1c(/C=C2\C(=O)Nc3ncnc(Nc4ccc(F)c(Cl)c4)c32)[nH]c2c1C(=O)N(CCN1CCOCC1)CC2` [Example 24, 4-(3-Chloro-4-fluoro-phenylamino)-5-[3-methyl-5-(2-morpholin-4-yl-ethyl)-4-oxo-4,5,6,7-tetrahydro-1H-pyrrolo[3,2-c]pyridine-2-ylmethylenene]-5,7-dihydro-pyrrolo[2,3-d]pyrimidin-6-one], the IC50 was 2420 nM. `CCN(CC)CCN1CCc2[nH]c(/C=C3\C(=O)Nc4cccc(-c5cccc(Cl)c5F)c43)c(C)c2C1=O` [Example 36, 2-[4-(3-Chloro-2-fluoro-phenyl)-2-oxo-1,2-dihydro-indol-3-ylidenemethyl]-5-(2-diethylamino-ethyl)-3-methyl-1,5,6,7-tetrahydro-pyrrolo[3,2-c]pyridin-4-one] was tested, and the IC50 was 110 nM. `Cc1c(/C=C2\C(=O)Nc3cccc(CCO)c32)[nH]c2c1C(=O)N(CCN1CCOCC1)CC2` [Example 42, 2-[4-(2-Hydroxy-ethyl)-2-oxo-1,2-dihydro-indol-3-ylidenemethyl]-3-methyl-5-(2-morpholin-4-yl-ethyl)-1,5,6,7-tetrahydro-pyrrolo[3,2-c]pyridin-4-one] showed an IC50 of 280 nM. `Cc1c(/C=C2\C(=O)Nc3ccc(Cl)cc32)[nH]c2c1C(=O)N(CCN1CCOCC1)CC2` [Example 16, 2-(5-Chloro-2-oxo-1,2-dihydro-indol-3-ylidenemethyl)-3-methyl-5-(2-morpholin-4-yl-ethyl)-1,5,6,7-tetrahydro-pyrrolo[3,2-c]pyridin-4-one] gave an IC50 of 580 nM. For `CCN(CC)CCN1CCc2[nH]c(/C=C3\C(=O)Nc4cccc(Br)c43)c(C)c2C1=O` [Example 30, 2-(4-Bromo-2-oxo-1,2-dihydro-indol-3-ylidenemethyl)-5-(2-diethylamino-ethyl)-3-methyl-1,5,6,7-tetrahydro-pyrrolo[3,2-c]pyridin-4-one], the IC50 was 220 nM. In the case of `Cc1c(/C=C2\C(=O)Nc3cccc(C4CCNCC4)c32)[nH]c2c1C(=O)N(CCN1CCOCC1)CC2` [Example 52, 3-Methyl-5-(2-morpholin-4-yl-ethyl)-2-(2-oxo-4-piperidin-4-yl-1,2-dihydro-indol-3-ylidenemethyl)-1,5,6,7-tetrahydro-pyrrolo[3,2-c]pyridin-4-one], the IC50 is reported as 260 nM. `CCN(CC)CCN1CCc2[nH]c(/C=C3\C(=O)Nc4cccc(C5CCNCC5)c43)c(C)c2C1=O` [Example 31, 5-(2-Diethylamino-ethyl)-3-methyl-2-(2-oxo-4-piperidin-4-yl-1,2-dihydro-indol-3-ylidenemethyl)-1,5,6,7-tetrahydro-pyrrolo[3,2-c]pyridin-4-one] was tested, and the IC50 was 190 nM. In the case of `Cc1c(/C=C2\C(=O)Nc3cccc(-c4cccc(F)c4F)c32)[nH]c2c1C(=O)N(CCN1CCCC1)CC2` [Example 59, 2-[4-(2,3-Difluoro-phenyl)-2-oxo-1,2-dihydro-indol-3-ylidenemethyl]-3-methyl-5-(2-pyrrolidin-1-yl-ethyl)-1,5,6,7-tetrahydro-pyrrolo[3,2-c]pyridin-4-one], the IC50 is reported as 300 nM. Work on `CCN(CC)CCN1CCc2[nH]c(/C=C3\C(=O)Nc4ccc(OC)cc43)c(C)c2C1=O` [Example 35, 5-(2-Diethylamino-ethyl)-2-(5-methoxy-2-oxo-1,2-dihydro-indol-3-ylidenemethyl)-3-methyl-1,5,6,7-tetrahydro-pyrrolo[3,2-c]pyridin-4-one] yielded an IC50 of 130 nM. For `CCN(CC)CCN1CCc2[nH]c(/C=C3\C(=O)Nc4cccc(CCO)c43)c(C)c2C1=O` [Example 37, 5-(2-Diethylamino-ethyl)-2-[4-(2-hydroxy-ethyl)-2-oxo-1,2-dihydro-indol-3-ylidenemethyl]-3-methyl-1,5,6,7-tetrahydro-pyrrolo[3,2-c]pyridin-4-one], the IC50 was 110 nM. Compound `CCN(CC)CCN1CCc2[nH]c(/C=C3\C(=O)Nc4cccc(-c5cccc(F)c5F)c43)c(C)c2C1=O` [Example 39, 5-(2-diethylamino-ethyl)-2-[4-(2,3-difluoro-phenyl)-2-oxo-1,2-dihydro-indol-3-ylidenemethyl]-3-methyl-1,5,6,7-tetrahydro-pyrrolo[3,2-c]pyridin-4-one] has an IC50 of 50 nM. `Cc1c(/C=C2\C(=O)Nc3ncc(Br)cc32)[nH]c2c1C(=O)N(CCN1CCOCC1)CC2` [Example 50, 2-(5-Bromo-2-oxo-1,2-dihydro-pyrrolo[2,3-b]pyridin-3-ylidenemethyl)-3-methyl-5-(2-morpholin-4-yl-ethyl)-1,5,6,7-tetrahydro-pyrrolo[3,2-c]pyridin-4-one] was tested, and the IC50 was 1160 nM. In the case of `CCN(CC)CCN1CCc2[nH]c(/C=C3\C(=O)Nc4ncnc(Nc5ccc(F)c(Cl)c5)c43)c(C)c2C1=O` [Example 12, 4-(3-Chlor O-4-fluoro-phenylamino)-5-[5-(2-diethylamino-ethyl)-3-methyl-4-oxo-4,5,6,7-tetrahydro-1H-pyrrolo[3,2-c]pyridine-2-ylmethylene]-5,7-dihydro-pyrrolo[2,3-d]pyrimidin-6-one], the IC50 is reported as 3000 nM. `CCN(CC)CCN1CCc2[nH]c(/C=C3\C(=O)Nc4cccc(-c5ccc(Cl)cc5F)c43)c(C)c2C1=O` [Example 34, 2-[4-(4-Chloro-2-fluoro-phenyl)-2-oxo-1,2-dihydro-indol-3-ylidenemethyl]-5-(2-diethylamino-ethyl)-3-methyl-1,5,6,7-tetrahydro-pyrrolo[3,2-c]pyridin-4-one] gave an IC50 of 120 nM. `Cc1c(/C=C2\C(=O)Nc3ccc(Br)cc32)[nH]c2c1C(=O)N(CCN1CCCC1)CC2` [Example 40, 2-(5-Bromo-2-oxo-1,2-dihydro-indol-3-ylidenemethyl)-3-methyl-5-(2-pyrrolidin-1-yl-ethyl)-1,5,6,7-tetrahydro-pyrrolo[3,2-c]pyridin-4-one] was tested, and the IC50 was 130 nM.
